Experimental data: US10660884B2, “Phosphonate-chloroquine conjugates and methods using same” (University of Rochester, priority 2015, dated 2020)

Key:
[1] = system: WT mouse bone marrow (BM) cells (OC precursors); assay: Osteoclastogenesis assay: OC formation on plastic, TRAP staining; format: cell-based; conditions: for Inhibition of osteoclast activity by osteoclast staining: WT mouse BM cells, images FIGS. 11-12
TRAF3 = assay: Western blot of RANKL-induced TRAF3 degradation; format: cell-based, mouse; conditions: 3 μM, 8 hrs, Western blotting
Protocol: WT mouse BM cells, cultured with M-CSF as in FIG. 6, were treated with vehicle, BTCQ, CQ or NC-BTCQ (3 μM) for 8 hrs. Cell lysates were used to test TRAF3 and actin protein levels by Western blotting.
Cultured cells were lysed with M-Per mammalian protein extraction reagent. 10-20 μg protein were loaded onto 10% SDS-PAGE gels, transferred onto polyvinylidene difluoride membranes, incubated with primary and secondary Abs, followed by exposure to ECL substrate. Signals were analyzed using a Bio-Rad imaging system.

bone resorption = conditions: cited from earlier work; for Prevention of bone resorption in mice: literature report
[2] = literature; cited from earlier work

Structure (SMILES) | Inhibition of osteoclast activity by osteoclast staining [1] | OC formation (OC numbers after TRAP staining) ([1]; BM cells on plastic, M-CSF 2 days, then RANKL plus compound 3 more days) | Concentration at which OC formation was inhibited (BTCQ more effective than CQ) ([1]; on plastic, FIG. 2A) [µM] | Prevention of RANKL-induced degradation of TRAF3 (TRAF3) | Dose that effectively blocks PTH-induced marrow fibrosis (bone resorption; Xiu Y et al., 2014) [mg/kg] | Prevention of bone resorption in mice (bone resorption) | Blindness, share of patients [2]
CCN(CC)CCCC(C)N(C(=O)OCCCCCCCC(=O)NC(P(=O)(O)O)P(=O)(O)O)c1ccnc2cc(Cl)ccc12 (racemic) [UR-11, rac-(13-(7-chloroquinolin-4-yl)-18-ethyl-14-methyl-3,12-dioxo-11-oxa-2,13,18-triazaicosane-1,1-diyl)diphosphonic acid] | more effective at inhibiting osteoclast activity than the non cleavable amide UR-12 | – | – | – | – | – | –
CCN(CC)CCCC(C)Nc1ccnc2cc(Cl)ccc12.O=P(O)(O)O.O=P(O)(O)O (stereo not shown) [CQ, 7-chloro-4-[[4-(diethylamino)-1-methylbutyl]amino] quinoline phosphate (1:2)] | more effective at inhibiting osteoclast activity than HCQ | inhibited OC formation | 3 | unlike CQ and BTCQ, NC-BTCQ does not prevent RANKL-induced degradation of TRAF3 | 50 | prevents bone resorption and osteoporosis | –
CCN(CCO)CCCC(C)Nc1ccnc2cc(Cl)ccc12 (stereo not shown) [HCQ, hydroxychloroquine] | CQ and BTCQ are more effective at inhibiting osteoclast activity than HCQ | – | – | – | – | does not prevent bone resorption in mice | 0.5-1%
